Source: patent publication US20230092890A1, “1, 3, 4-Oxadiazole derivative compounds as histone deacetylase 6 inhibitor, and the pharmaceutical composition comprising the same” (Chong Kun Dang Pharmaceutical Corp., priority 2019, published 2023)
Read-outs that look alike come from different tables or passages of the source. Each block holds one molecule with its values, some of them ahead of it.

Assays:
HDAC6 human recombinant = target: T1, HDAC6 human recombinant (Homo sapiens, UniProt Q9UBN7); assay: HDAC enzyme activity inhibition (in vitro), HDAC6 assay; type: biochemical
T1 construct: purchased Calbiochem 382180
T1 sequence (Q9UBN7 1-1215): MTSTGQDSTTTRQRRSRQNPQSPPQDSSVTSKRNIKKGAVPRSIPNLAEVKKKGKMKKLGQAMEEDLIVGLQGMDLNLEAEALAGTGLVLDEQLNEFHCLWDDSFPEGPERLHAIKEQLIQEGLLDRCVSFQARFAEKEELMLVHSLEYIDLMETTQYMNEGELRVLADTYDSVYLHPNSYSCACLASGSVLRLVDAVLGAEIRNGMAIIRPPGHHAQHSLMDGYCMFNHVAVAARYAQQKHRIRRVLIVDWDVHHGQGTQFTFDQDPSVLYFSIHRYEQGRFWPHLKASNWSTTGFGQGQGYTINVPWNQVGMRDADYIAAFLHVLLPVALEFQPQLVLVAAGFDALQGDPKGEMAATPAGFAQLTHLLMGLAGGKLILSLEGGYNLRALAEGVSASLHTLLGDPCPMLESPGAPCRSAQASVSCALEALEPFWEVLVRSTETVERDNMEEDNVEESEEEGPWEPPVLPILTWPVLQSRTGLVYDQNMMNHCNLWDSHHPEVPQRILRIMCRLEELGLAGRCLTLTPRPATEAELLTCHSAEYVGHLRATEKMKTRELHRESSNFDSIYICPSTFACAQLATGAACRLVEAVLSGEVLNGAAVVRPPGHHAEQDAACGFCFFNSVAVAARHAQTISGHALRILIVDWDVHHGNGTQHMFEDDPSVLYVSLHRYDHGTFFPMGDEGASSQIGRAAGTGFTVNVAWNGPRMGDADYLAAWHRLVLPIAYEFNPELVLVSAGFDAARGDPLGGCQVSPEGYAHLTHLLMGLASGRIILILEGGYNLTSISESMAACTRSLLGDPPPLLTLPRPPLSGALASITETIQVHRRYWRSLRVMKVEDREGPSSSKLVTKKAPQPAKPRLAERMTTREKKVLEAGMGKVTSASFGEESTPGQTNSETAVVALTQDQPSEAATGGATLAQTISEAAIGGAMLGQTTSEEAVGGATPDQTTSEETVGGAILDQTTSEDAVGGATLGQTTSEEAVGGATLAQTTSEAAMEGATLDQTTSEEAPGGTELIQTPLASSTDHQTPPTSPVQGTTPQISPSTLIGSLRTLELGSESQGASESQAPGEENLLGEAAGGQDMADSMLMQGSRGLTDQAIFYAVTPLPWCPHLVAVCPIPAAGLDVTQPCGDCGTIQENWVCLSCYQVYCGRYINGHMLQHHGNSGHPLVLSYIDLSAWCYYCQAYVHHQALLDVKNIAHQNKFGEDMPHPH
Procedure, shortened: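 HDAC6 human recombinant enzyme with fluorimetric substrate; […]. Reaction 60 min at 37° C, then developer 30 min at 37° C; fluorescence read at Ex 390/Em 460.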

HDAC1 = target: T2, HDAC1 (Homo sapiens, UniProt Q13547); assay: HDAC enzyme activity inhibition (in vitro), HDAC1 Fluorimetric Drug Discovery Assay Kit; type: biochemical
T2 construct: purchased Enzolifesciences BML-AK511
T2 sequence (Q13547 whole entry): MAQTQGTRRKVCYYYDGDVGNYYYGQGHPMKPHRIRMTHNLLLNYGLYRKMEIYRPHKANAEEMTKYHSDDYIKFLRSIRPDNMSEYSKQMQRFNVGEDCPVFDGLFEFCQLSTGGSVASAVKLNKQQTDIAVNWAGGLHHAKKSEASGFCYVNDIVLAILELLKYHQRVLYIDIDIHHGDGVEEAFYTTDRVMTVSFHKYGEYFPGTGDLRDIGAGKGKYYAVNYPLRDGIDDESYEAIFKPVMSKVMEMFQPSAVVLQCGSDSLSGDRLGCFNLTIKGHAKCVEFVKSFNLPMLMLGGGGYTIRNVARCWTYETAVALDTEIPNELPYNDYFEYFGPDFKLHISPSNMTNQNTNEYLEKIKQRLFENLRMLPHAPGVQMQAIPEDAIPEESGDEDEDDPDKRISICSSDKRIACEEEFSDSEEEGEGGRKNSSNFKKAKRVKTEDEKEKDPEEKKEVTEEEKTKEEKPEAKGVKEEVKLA
Procedure, shortened: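 HDAC1 was tested at 100, 1000 and 10000 nM and recombinant human HDAC6 at 0.1, 1, 10, 100 and 1000 nM. Enzyme reactions ran 60 min at 37° C, then developer was added for 30 min at 37° C, and fluorescence (Ex 390, Em 460) was read.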

[1] = samples at 0.1, 1, 10, 100 and 1000 nM, 37° C. 60 minutes, fluorescence Ex 390, Em 460, read-out: HDAC6 IC50
[2] = samples at 100, 1000 and 10000 nM, 37° C. 60 minutes, fluorescence Ex 390, Em 460, read-out: HDAC1 IC50

IC50 (HDAC6 human recombinant; [1]): 84 nM | IC50 (HDAC1; [2]): > 10000 nM
Structure (SMILES): Cc1oncc1C(=O)N1CCC(n2c(=O)n(Cc3ccc(-c4nnc(C(F)F)o4)cn3)c3cc(F)ccc32)CC1 [Compound 65, 3-((5-(5-(difluoromethyl)-1,3,4-oxadiazole-2-yl)pyridine-2-yl)methyl)-5-fluoro-1-(1-(5-methylisooxazole-4-carbonyl)piperidine-4-yl)-1,3-dihydro-2H-benzo[d]imidazole-2-one]

IC50 (HDAC6 human recombinant; [1]): 72 nM | IC50 (HDAC1; [2]): > 10000 nM
Structure (SMILES): Cc1ccc(C(=O)N2CCC(n3c(=O)n(Cc4ccc(-c5nnc(C(F)F)o5)cn4)c4cc(F)ccc43)CC2)o1 [Compound 66, 3-((5-(5-(difluoromethyl)-1,3,4-oxadiazole-2-yl)pyridine-2-yl)methyl)-5-fluoro-1-(1-(5-methylfuran-2-carbonyl)piperidine-4-yl)-1,3-dihydro-2H-benzo[d]imidazole-2-one]

IC50 (HDAC6 human recombinant; [1]): 41 nM | IC50 (HDAC1; [2]): > 10000 nM
Structure (SMILES): COCCC(=O)N1CCC(n2c(=O)n(Cc3ccc(-c4nnc(C(F)F)o4)cn3)c3cc(F)ccc32)CC1 [Compound 67, 3-((5-(5-(difluoromethyl)-1,3,4-oxadiazole-2-yl)pyridine-2-yl)methyl)-5-fluoro-1-(1-(3-methoxypropanoyl)piperidine-4-yl)-1,3-dihydro-2H-benzo[d]imidazole-2-one]

IC50 (HDAC6 human recombinant; [1]): 34 nM | IC50 (HDAC1; [2]): > 10000 nM
Structure (SMILES): COC(=O)N1CCC(n2c(=O)n(Cc3ccc(-c4nnc(C(F)F)o4)cn3)c3cc(F)ccc32)CC1 [Compound 68, Methyl 4-(3-((5-(5-(difluoromethyl)-1,3,4-oxadiazole-2-yl)pyridine-2-yl)methyl)-5-fluoro-2-oxo-2,3-dihydro-1H-benzo[d]imidazole-1-yl)piperidine-1-carboxylate]

IC50 (HDAC6 human recombinant; [1]): 28 nM | IC50 (HDAC1; [2]): > 10000 nM
Structure (SMILES): CN1CCC(n2c(=O)n(Cc3ccc(-c4nnc(C(F)F)o4)cc3F)c3cc(F)ccc32)CC1 [Compound 69, 3-(4-(5-(difluoromethyl)-1,3,4-oxadiazole-2-yl)-2-fluorobenzyl)-5-fluoro-1-(1-methylpiperidine-4-yl)-1,3-dihydro-2H-benzo[d]imidazole-2-one]

IC50 (HDAC6 human recombinant; [1]): 31 nM | IC50 (HDAC1; [2]): > 10000 nM
Structure (SMILES): CC(C)N1CCC(n2c(=O)n(Cc3ccc(-c4nnc(C(F)F)o4)cc3F)c3cc(F)ccc32)CC1 [Compound 70, 3-(4-(5-(difluoromethyl)-1,3,4-oxadiazole-2-yl)-2-fluorobenzyl)-5-fluoro-1-(1-isopropylpiperidine-4-yl)-1,3-dihydro-2H-benzo[d]imidazole-2-one]

IC50 (HDAC6 human recombinant; [1]): 19 nM | IC50 (HDAC1; [2]): > 10000 nM
Structure (SMILES): O=c1n(Cc2ccc(-c3nnc(C(F)F)o3)cc2F)c2cc(F)ccc2n1C1CCN(C2COC2)CC1 [Compound 71, 3-(4-(5-(difluoromethyl)-1,3,4-oxadiazole-2-yl)-2-fluorobenzyl)-5-fluoro-1-(1-(oxetan-3-yl)piperidine-4-yl)-1,3-dihydro-2H-benzo[d]imidazole-2-one]

The remaining lines, values behind:

Structure (SMILES): O=c1n(Cc2ccc(-c3nnc(C(F)F)o3)cn2)c2cc(F)ccc2n1C1CCN(C2CCOCC2)CC1 [Compound 55, 3-((5-(5-(difluoromethyl)-1,3,4-oxadiazole-2-yl)pyridine-2-yl)methyl)-5-fluoro-1-(1-(tetrahydro-2H-pyran-4-yl)piperidine-4-yl)-1,3-dihydro-2H-benzo[d]imidazole-2-one]
IC50 (HDAC6 human recombinant; [1]): 39 nM | IC50 (HDAC1; [2]): > 10000 nM

Structure (SMILES): COCC(C)N1CCC(n2c(=O)n(Cc3ccc(-c4nnc(C(F)F)o4)cn3)c3cc(F)ccc32)CC1 (stereo not shown) [Compound 56, 3-((5-(5-(difluoromethyl)-1,3,4-oxadiazole-2-yl)pyridine-2-yl)methyl)-5-fluoro-1-(1-(1-methoxypropane-2-yl)piperidine-4-yl)-1,3-dihydro-2H-benzo[d]imidazole-2-one]
IC50 (HDAC6 human recombinant; [1]): 34 nM | IC50 (HDAC1; [2]): > 10000 nM

Structure (SMILES): O=c1n(Cc2ccc(-c3nnc(C(F)F)o3)cn2)c2cc(F)ccc2n1C1CCN(C2CCSCC2)CC1 [Compound 57, 3-((5-(5-(difluoromethyl)-1,3,4-oxadiazole-2-yl)pyridine-2-yl)methyl)-5-fluoro-1-(1-(tetrahydro-2H-thiopyran-4-yl)piperidine-4-yl)-1,3-dihydro-2H-benzo[d]imidazole-2-one]
IC50 (HDAC6 human recombinant; [1]): 36 nM | IC50 (HDAC1; [2]): > 10000 nM

Structure (SMILES): O=c1n(Cc2ccc(-c3nnc(C(F)F)o3)cn2)c2cc(F)ccc2n1C1CCN(C2CCC3(CC2)OCCO3)CC1 [Compound 58, 1-(1-(1,4-dioxaspiro[4.5]decane-8-yl)piperidine-4-yl)-3-((5-(5-(difluoromethyl)-1,3,4-oxadiazole-2-yl)pyridine-2-yl)methyl)-5-fluoro-1,3-dihydro-2H-benzo[d]imidazole-2-one]
IC50 (HDAC6 human recombinant; [1]): 28 nM | IC50 (HDAC1; [2]): > 10000 nM

Structure (SMILES): CC(=O)N1CCC(N2CCC(n3c(=O)n(Cc4ccc(-c5nnc(C(F)F)o5)cn4)c4cc(F)ccc43)CC2)CC1 [Compound 59, 1-(1′-acetyl-[1,4′-bipiperidine]-4-yl)-3-((5-(5-(difluoromethyl)-1,3,4-oxadiazole-2-yl)pyridine-2-yl)methyl)-5-fluoro-1,3-dihydro-2H-benzo[d]imidazole-2-one]
IC50 (HDAC6 human recombinant): 38 nM | IC50 (HDAC1): > 10000 nM

Structure (SMILES): CC(=O)N1CCC(n2c(=O)n(Cc3ccc(-c4nnc(C(F)F)o4)cn3)c3cc(F)ccc32)CC1 [Compound 60, 1-(1-acetylpiperidine-4-yl)-3-((5-(5-(difluoromethyl)-1,3,4-oxadiazole-2-yl)pyridine-2-yl)methyl)-5-fluoro-1,3-dihydro-2H-benzo[d]imidazole-2-one]
IC50 (HDAC6 human recombinant; [1]): 31 nM | IC50 (HDAC1; [2]): > 10000 nM

Structure (SMILES): O=C(N1CCOCC1)N1CCC(n2c(=O)n(Cc3ccc(-c4nnc(C(F)F)o4)cn3)c3cc(F)ccc32)CC1 [Compound 61, 3-((5-(5-(difluoromethyl)-1,3,4-oxadiazole-2-yl)pyridine-2-yl)methyl)-5-fluoro-1-(1-(morpholine-4-carbonyl)piperidine-4-yl)-1,3-dihydro-2H-benzo[d]imidazole-2-one]
IC50 (HDAC6 human recombinant; [1]): 32 nM | IC50 (HDAC1; [2]): > 10000 nM

Structure (SMILES): O=C(c1ccc(C(F)(F)F)cc1)N1CCC(n2c(=O)n(Cc3ccc(-c4nnc(C(F)F)o4)cn3)c3cc(F)ccc32)CC1 [Compound 62, 3-((5-(5-(difluoromethyl)-1,3,4-oxadiazole-2-yl)pyridine-2-yl)methyl)-5-fluoro-1-(1-(4-(trifluoromethyl)benzoyl)piperidine-4-yl)-1,3-dihydro-2H-benzo[d]imidazole-2-one]
IC50 (HDAC6 human recombinant; [1]): 259 nM | IC50 (HDAC1; [2]): > 10000 nM

Structure (SMILES): O=C(c1ccncc1)N1CCC(n2c(=O)n(Cc3ccc(-c4nnc(C(F)F)o4)cn3)c3cc(F)ccc32)CC1 [Compound 63, 3-((5-(5-(difluoromethyl)-1,3,4-oxadiazole-2-yl)pyridine-2-yl)methyl)-5-fluoro-1-(1-isonicotinoylpiperidine-4-yl)-1,3-dihydro-2H-benzo[d]imidazole-2-one]
IC50 (HDAC6 human recombinant; [1]): 57 nM | IC50 (HDAC1; [2]): > 10000 nM

Structure (SMILES): O=C(c1cncnc1)N1CCC(n2c(=O)n(Cc3ccc(-c4nnc(C(F)F)o4)cn3)c3cc(F)ccc32)CC1 [Compound 64, 3-((5-(5-(difluoromethyl)-1,3,4-oxadiazole-2-yl)pyridine-2-yl)methyl)-5-fluoro-1-(1-(pyrimidine-5-carbonyl)piperidine-4-yl)-1,3-dihydro-2H-benzo[d]imidazole-2-one]
IC50 (HDAC6 human recombinant; [1]): 44 nM | IC50 (HDAC1; [2]): > 10000 nM
